Experimental data as given in article PMC4498326, “Assessing the Efficacy of Mdm2/Mdm4-Inhibiting Stapled Peptides Using Cellular Thermal Shift Assays” (Scientific Reports, 2015).
Where two headings read alike, the source gives them in different places. Bridge positions count the residues as written; N and C are the ends. Square brackets hold non-standard residues; d marks the D form. Peptide text beside a SMILES is read from it. R8 = C=CCCCCCC[C@@](C)(N)C(=O)O; S5 = C=CCCC[C@](C)(N)C(=O)O

What was measured:
[1] = target: T1, Mdm4 (Homo sapiens, UniProt O15151); assay: Lysate CETSA, thermal stabilisation of Mdm4 in AML2 cell lysates; format: binding; design: endogenous in cells; host or cells: OCI/AML-2 (AML2) cells, pre-treated with MG132
T1 sequence (O15151 1-490): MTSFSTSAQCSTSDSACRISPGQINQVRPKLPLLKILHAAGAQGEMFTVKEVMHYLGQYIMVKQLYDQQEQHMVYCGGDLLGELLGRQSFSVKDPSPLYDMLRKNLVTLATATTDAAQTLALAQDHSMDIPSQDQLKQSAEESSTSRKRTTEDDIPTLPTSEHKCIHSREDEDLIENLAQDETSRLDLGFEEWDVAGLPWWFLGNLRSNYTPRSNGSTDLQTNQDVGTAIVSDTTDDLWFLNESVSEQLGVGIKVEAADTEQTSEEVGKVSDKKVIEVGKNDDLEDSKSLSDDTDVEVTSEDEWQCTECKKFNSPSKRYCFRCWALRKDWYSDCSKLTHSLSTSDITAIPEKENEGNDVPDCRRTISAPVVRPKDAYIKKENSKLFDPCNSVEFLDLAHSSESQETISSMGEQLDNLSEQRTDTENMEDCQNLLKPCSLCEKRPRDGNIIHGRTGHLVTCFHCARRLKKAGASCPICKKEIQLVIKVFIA
Description: (§1) Cells pre-treated with 10 μM MG132 for one hour were lysed in kinase buffer (25 mM Tris pH 7.4, 10 mM MgCl2, 2 mM DTT, 1x protease (Roche) and phosphatase inhibitor cocktails (Thermo Scientific)) by dounce homogenisation with a 2 ml Wheaton mortar and pestle. […] Following a 15 min incubation at room temperature with the drugs, the cell lysates were individually heated to the indicated temperatures for 2 min, cool at room temperature for 2 min, and placed on ice. Insoluble proteins were separated by centrifugation, and the soluble proteins were used for SDS PAGE and Western blotting for the indicated proteins. Three independent replicates were performed.
(§2) The relative signal intensities were plotted against temperature using Graphpad (Prism) and a variable slope sigmoidal curve was fitted by least squares for each data set using the following equation (1): [drawing 1]
(§3) Initial values for top and bottom plateaus were set at 1.0 and 0 respectively for curve fitting, while initial values for Tm50 and Hill Slope were automatically chosen. As the asymmetry of errors is small, errors were assumed to be symmetrical for statistical analyses.

[2] = target: T2, Mdm2 (Homo sapiens, UniProt Q00987); assay: Whole cell CETSA, Mdm2
Description: (§4) Cells were pre-treated with 10 μM MG132 for one hour before a four hour treatment with the indicated drugs. They were then aliquoted for heating to different temperatures for 2 min, cooled at room temperature for 2 min and placed on ice. Kinase buffer was added to the cells, followed by lysis with three freeze/thaw cycles in liquid nitrogen. Insoluble proteins were separated by centrifugation, and the soluble proteins were used for SDS PAGE and Western blotting. Three independent experiments were performed.
as §2, §3

[3] = target: T2, Mdm2; assay: Lysate CETSA, thermal stabilisation of Mdm2 in AML2 cell lysates; format: binding; design: endogenous in cells; host or cells: OCI/AML-2 (AML2) cells, pre-treated with MG132; details: Fig. 1a, 10 μM in 5 mg/ml AML2 cell lysates, three independent replicates
Description: as §1, §2, §3

[4] = target: T2, Mdm2; design: method as in 3 sources, ref 10 = [10]; PMID 23214419; doi:10.1021/cb3005148; Brown C. J. et al. Stapled Peptides with Improved Potency and Specificity That Activate p53 . ACS Chem. Biol . 8 , 506 – 512 ( 2013 ). 23214419 10.1021/cb3005148 ||| ref 11 = [11]; PMID 23946421; doi:10.1073/pnas; Chang Y. S. et al. Stapled α−helical peptide drug development: A potent dual inhibitor of MDM2 and MDMX for p53-dependent cancer therapy . Proc. Natl. Acad. Sci . 201303002 (2013). 10.1073/pnas .13030 ||| ref 6 = [6]; PMID 14704432; doi:10.1126/science.1092472; Vassilev L. T. et al. In vivo activation of the p53 pathway by small-molecule antagonists of MDM2 . Science 303 , 844 – 848 ( 2004 ). 14704432 10.1126/science.1092472; details: competition assay, cited from earlier work
[5] = target: T1, Mdm4; design: method as in 3 sources, ref 10 = [10]; PMID 23214419; doi:10.1021/cb3005148; Brown C. J. et al. Stapled Peptides with Improved Potency and Specificity That Activate p53 . ACS Chem. Biol . 8 , 506 – 512 ( 2013 ). 23214419 10.1021/cb3005148 ||| ref 11 = [11]; PMID 23946421; doi:10.1073/pnas; Chang Y. S. et al. Stapled α−helical peptide drug development: A potent dual inhibitor of MDM2 and MDMX for p53-dependent cancer therapy . Proc. Natl. Acad. Sci . 201303002 (2013). 10.1073/pnas .13030 ||| ref 6 = [6]; PMID 14704432; doi:10.1126/science.1092472; Vassilev L. T. et al. In vivo activation of the p53 pathway by small-molecule antagonists of MDM2 . Science 303 , 844 – 848 ( 2004 ). 14704432 10.1126/science.1092472; details: competition assay, cited from earlier work
[6] = target: Mdm2 (human (endogenous in OCI/AML-2)) (UniProt Q00987); assay: cellular thermal shift assay (CETSA); lysate CETSA: peptides at 10 uM added to 5 mg/ml AML2 cell lysate (kinase buffer: 25 mM Tris pH 7.4, 10 mM MgCl2, 2 mM DTT), 15 min at room temperature, heated 2 min, soluble protein by Western blot; dTm50 against the control
[7] = test system: p53 responsive β-galactosidase reporter in T22 cells; assay: T22 p53 β-galactosidase based reporter assay; format: cell-based; details: 18 h treatment, text points to Fig. 2a in Brown et al., 2013
Description: T22 cells, which were stably transfected with a p53 responsive β-galactosidase reporter, were seeded into 96-well plate at a cell density of 8000 cells per well[22]. Cells were maintained in Dulbecco’s Minimal Eagle Medium (DMEM) with 10% FBS and penicillin/streptomycin and incubated for 24 hours before treatment with the stapled peptides for 18 hours. β-galactosidase activity was assayed using the FluoReporter LacZ/Galactosidase Quantitation kit (Invitrogen) as per manufacturer’s instructions. Measurements were made using an Envision plate reader (Perkin Elmer). Experiments were carried out independently thrice.

[8] = target: T1, Mdm4; assay: Whole cell CETSA, Mdm4; details: whole cells 25 μM
Description: as §4, §2, §3

[9] = target: Mdm4 (human (endogenous in OCI/AML-2)) (UniProt O15151); assay: cellular thermal shift assay (CETSA); lysate CETSA: peptides at 10 uM added to 5 mg/ml AML2 cell lysate (kinase buffer: 25 mM Tris pH 7.4, 10 mM MgCl2, 2 mM DTT), 15 min at room temperature, heated 2 min, soluble protein by Western blot; dTm50 against the control
[10] = target: Mdm2 (human (endogenous in OCI/AML-2)) (UniProt Q00987); assay: cellular thermal shift assay (CETSA); whole cell CETSA: OCI/AML-2 cells pre-treated with 10 uM MG132 for 1 h, then 25 uM Staplin-2 for 4 h, intact cells heated 2 min, lysed by freeze/thaw, soluble protein by Western blot; compared with the lysate CETSA
[11] = target: Mdm4 (human (endogenous in OCI/AML-2)) (UniProt O15151); assay: as above
[12] = no reference number printed in the cell, footnote: IC50s are obtained from the references indicated

Mdm2 (human (endogenous in OCI/AML-2)), sequence (Q00987 whole entry): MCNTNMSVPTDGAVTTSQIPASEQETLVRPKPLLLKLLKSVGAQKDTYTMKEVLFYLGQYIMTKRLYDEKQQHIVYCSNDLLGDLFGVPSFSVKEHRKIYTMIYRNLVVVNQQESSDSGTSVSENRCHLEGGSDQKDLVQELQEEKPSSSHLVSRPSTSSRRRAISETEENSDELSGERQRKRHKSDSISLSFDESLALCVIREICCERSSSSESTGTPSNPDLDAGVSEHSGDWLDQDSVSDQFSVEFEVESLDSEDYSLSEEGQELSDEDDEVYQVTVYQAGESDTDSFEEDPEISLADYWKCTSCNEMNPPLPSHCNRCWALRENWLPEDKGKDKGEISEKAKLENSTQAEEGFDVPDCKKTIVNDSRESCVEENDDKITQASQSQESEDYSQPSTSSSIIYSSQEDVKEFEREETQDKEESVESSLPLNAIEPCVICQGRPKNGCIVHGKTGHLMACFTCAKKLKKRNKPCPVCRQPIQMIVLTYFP
T2 sequence (Q00987 whole entry): as above

CC(C)C[C@H](NC(=O)c1ccc2c(c1)C(=O)OC21c2ccc(O)cc2Oc2cc(O)ccc21)C(=O)N[C@H](C(=O)N[C@@H](Cc1ccccc1)C(=O)N[C@]1(C)CCCCCCC=CCCC[C@@](C)(C(=O)N[C@@H](CO)C(=O)N[C@@H](C)C(=O)N[C@@H](C)C(N)=O)NC(=O)[C@H](CC2CCC2)NC(=O)[C@H](CCC(N)=O)NC(=O)[C@H](C)NC(=O)[C@H](Cc2c[nH]c3ccccc23)NC(=O)[C@H](Cc2ccc(O)cc2)NC(=O)[C@H](CCC(=O)O)NC1=O)[C@@H](C)O [ATSP-7041 ^FAM]
Mdm4 ΔTm50 (±95% CI) ([1]; Fig. 2c, labelled and unlabelled stapled peptides, AML2 cell extracts, 15 min): 1.11 (1.65) °C

COc1ccc(C2=N[C@@H](c3ccc(Cl)cc3)[C@@H](c3ccc(Cl)cc3)N2C(=O)N2CCNC(=O)C2)c(OC(C)C)c1 [Nutlin-3, nutlin-3, reference compound]
Mdm2 ΔΔTm50 (±95% CI), lysate versus whole cell ([2]; Fig. 3a, 10 μM): 0.24 ± 1.42 °C
Mdm2: Tm50 (mean +95% CI −95% CI) ([3]; 15 min room temperature, heated 2 min, Western blot): 55.9 °C

CC(=O)N[C@H](C(=O)N[C@@H](CO)C(=O)N[C@@H](C)C(=O)N[C@]1(C)CCCCCCC=CCCC[C@@](C)(C(N)=O)NC(=O)[C@H](C)NC(=O)[C@H](CC(C)C)NC(=O)[C@H](C)NC(=O)[C@H](C)NC(=O)[C@H](Cc2ccc(O)cc2)NC(=O)[C@H](CCC(=O)O)NC1=O)[C@@H](C)O [Staplin-Control, reference compound] (Ac-TSA[R8]EYAALA[S5]-NH2; staple 4-11)
IC50 [4, 12]: > 10 µM
IC50 [5, 12]: > 10 µM

CC(=O)N[C@H](C(=O)N[C@@H](CO)C(=O)N[C@@H](Cc1ccccc1)C(=O)N[C@]1(C)CCCCCCC=CCCC[C@@](C)(C(N)=O)NC(=O)[C@H](CC(C)C)NC(=O)[C@H](CC(C)C)NC(=O)[C@H](C)NC(=O)[C@H](Cc2c[nH]c3ccccc23)NC(=O)[C@H](Cc2ccc(O)cc2)NC(=O)[C@H](CCC(=O)O)NC1=O)[C@@H](C)O [Staplin]
IC50 [5]: 0.66 ± 0.06 µM
ΔTm at 10 µM ([3]; human, 0.25 h, versus control, read-out: Mdm2: ΔTm50 (±95% CI)): 6.76 °C
ΔTm at 10 µM ([1]; human, 0.25 h, Fig. 1b, 10 μM in 5 mg/ml AML2 cell lysates, versus control, three independent replicates, read-out: Mdm4: ΔTm50 (±95% CI)): 5.48 °C

ATSP-7041 (peptide)
thermal shift (ΔTm50) [6]: 1.52 °C

Ac-^1LTFXrEYWAQ(Cba)XSSAA^14-NH2 (sidechain bridge or staple) [ATSP-7041, reference compound]
p53 activation measured by β-galactosidase activity with increasing concentrations [7]: correspondingly increasing p53 activity and plateaued off at maxima
IC50 [5]: 2.31 µM

Ac-^1TSFXrEYW(6Cl)WALLXs^11-NH2 (sidechain bridge or staple) [Staplin-2]
p53 activation measured by β-galactosidase activity with increasing concentrations [7]: correspondingly increasing p53 activity and plateaued off at maxima
IC50 [4]: 0.32 ± 0.02 µM
IC50 [5]: 3.49 ± 0.63 µM
ΔΔTm50 (±95% CI) Mdm2, lysate versus whole cell ([2]; Fig. 3b, whole cells 25 μM): 4.01 °C
mean thermal shift from the whole cell CETSA as % of the mean thermal shift for the cell lysate CETSA, Mdm2 ([2]; whole cells 25 μM): 40%
ΔΔTm50 (±95% CI) Mdm4, lysate versus whole cell ([8]; Fig. 3b): 3.58 °C
mean thermal shift from the whole cell CETSA as % of the mean thermal shift for the cell lysate CETSA, Mdm4 [8]: 33%
Mdm2: ΔTm50 (±95% CI) ([3]; versus control): 6.58 °C
Mdm4: ΔTm50 (±95% CI) ([1]; Fig. 1b, 10 μM in 5 mg/ml AML2 cell lysates, versus control, three independent replicates): 5.44 °C

FAM-labelled ATSP-7041 (peptide)
decrease in thermal shift against unlabelled ATSP-7041 [9]: 0.4 °C

FAM-labelled Staplin-2 (peptide)
thermal shift less than that of unlabelled Staplin-2 [6]: 2.71 °C
thermal shift less than that of unlabelled Staplin-2 [9]: 2.99 °C

Staplin (peptide)
ΔTm50 [6]: 6.76 °C
ΔTm50 [9]: 5.48 °C

Staplin-2 (peptide)
mean thermal shift in whole cell CETSA as percent of that in cell lysate CETSA [10]: 40%
ΔΔTm50 (whole cell CETSA against cell lysate CETSA) [10]: 4.01 °C
mean thermal shift in whole cell CETSA as percent of that in cell lysate CETSA [11]: 33%
ΔΔTm50 (whole cell CETSA against cell lysate CETSA) [11]: 3.58 °C
ΔTm50 [6]: 6.58 °C
ΔTm50 [9]: 5.44 °C
